Data reported in patent US6906035B2, “Antimicrobial cationic peptides” (priority 1995, dated 2005).
Values joined by “and” are separate entries in the source; they are usually repeats but may differ in a detail not shown here. Equal values may be shown once. Read-outs that look alike come from different tables or passages of the source. Ends that are not written are not given here.

Experiments:
X. maltophila = test: organism not typed; details: agent alone
Protocol: (§1) FICs are performed by checkerboard titrations of peptides in one dimension of a microtiter plate, and of antibiotics in the other dimension, for example. The FIC is calculated by looking at the impact of one antibiotic on the MIC of the other and vice versa. […] Preferably, an FIC of less than 0.5 is obtained for synergism. As used herein, FIC can be determined as follows: [formula]
(§2) Synergism is identified as an FIC of about ≦0.5.

P. aeruginosa [1] = test: microbe, parasite or virus in culture; details: agent alone
Protocol: as §1, §2

A. calcoaceticus = details: agent alone
Protocol: as §1, §2

E. cloacae = details: agent alone
Protocol: as §1, §2

Candida albicans = test: MIC, broth dilution in LB-S; assay type: cell-based; details: Candida alibicans (CAN105); Table 1a
Protocol: as §1
(§3) Briefly, cells were grown overnight at 37° C. in LB-S (Luria broth without any salt supplement) and diluted one in 10,000 in the same medium to give concentrations of about 10^4 to 10^5 CFU/ml. The broth dilutions were set up in a 96 well microtiter plate by putting 200 μl of LB-S containing the initial concentration of antibiotic or compound in column 1 and 100 μl of the same medium in columns 2-12. The compounds were diluted by taking 100 μl of broth from column 1 and mixing it with column 2, resulting in a one in two dilution. This was continued to column 10. Finally, 10 μl of bacteria were pipetted into columns 1-11, and the plates incubated overnight at 37° C. The next day the plates were scored for growth in the wells, and the MIC determined.

E. coli = test: MIC, broth dilution in LB-S; assay type: cell-based; details: for MIC: E. coli (UB1005), Table 1a; for MIC E. coli 0111:B4: MBI 29 and MBI21 derivatives
Protocol: (§4) The biological activity of the peptides can be determined by standard methods known to those of skill in the art, such as “minimal inhibitory concentration (MIC)” assay described in the present examples, whereby the lowest concentration at which no change in OD is observed for a given period of time is recorded as MIC. Alternatively, “fractional inhibitory concentration (FIC)” is also useful for determination of synergy between the peptides of the invention, or the peptides in combination with known antibiotics. FICs are performed by checkerboard titrations of peptides in one dimension of a microtiter plate, and of antibiotics in the other dimension, for example. The FIC is calculated by looking at the impact of one antibiotic on the MIC of the other and vice versa. […] Preferably, an FIC of less than 0.5 is obtained for synergism. As used herein, FIC can be determined as follows: [formula]
as §3

S. aureus = test: MIC, broth dilution in LB-S; assay type: cell-based; details: for MIC: Table 1a; for MIC K147 / MIC SAP: MBI 29 and MBI21 derivatives
Protocol: as §4, §3

P. aeruginosa [2] = details: for MIC: P. aeruginosa (H187), Table 1a; for MIC H103: MBI 29 and MBI21 derivatives
Protocol: as §1, §3

S. epidermis = details: for MIC: S. epidermis, Table 1a; for MIC S. epi 0017: MBI 29 and MBI21 derivatives
Protocol: as §1, §3

B. Subtilis = test: MIC, broth dilution in LB-S; assay type: cell-based; details: MBI 29 and MBI21 derivatives
Protocol: as §4, §3

E. faecalis = test: MIC, broth dilution in LB-S; assay type: cell-based; details: MBI 29 and MBI21 derivatives
Protocol: as §4, §3

C610 = test: MIC, broth dilution in LB-S; assay type: cell-based, S. typhimurium; details: MBI 29 and MBI21 derivatives
Protocol: as §4, §3

[3] = X. maltophila isolate 37, strain 3095
[4] = X. maltophila isolate 38, strain 7901
[5] = X. maltophila isolate 39, strain B3110.1
[6] = X. maltophila isolate 40, strain R1302-1
[7] = X. maltophila isolate 45, strain W11291
[8] = P. aeruginosa isolate 23, strain ATCC 27853
[9] = P. aeruginosa isolate 25, strain 923-1
[10] = P. aeruginosa isolate 26, strain 3101
[11] = P. aeruginosa isolate 27, strain 14644
[12] = P. aeruginosa isolate 30, strain B3999-1
[13] = P. aeruginosa isolate 31, strain U7688-1
[14] = P. aeruginosa isolate 32, strain W2897-1
[15] = E. cloacae isolate 14, strain 938-2
[16] = E. cloacae isolate 18, strain 3077
[17] = X. maltophila isolate 35, strain 6
[18] = X. maltophila isolate 36, strain 16
[19] = X. maltophila isolate 41, strain R4230
[20] = X. maltophila isolate 42, strain TF29-1
[21] = X. maltophila isolate 43, strain TF29-2
[22] = X. maltophila isolate 44, strain W6896-2
[23] = P. aeruginosa isolate 28, strain 15036
[24] = P. aeruginosa isolate 24, strain 34
[25] = A. calcoaceticus isolate 1, strain ATCC 23055

Compound: CCN1CCN(C(=O)N[C@@H](C(=O)N[C@@H]2C(=O)N3[C@@H]2SC(C)(C)[C@@H]3C(=O)O)c2ccccc2)C(=O)C1=O [Piperacillin]
- MIC (X. maltophila; [3]): 1024 µg/mL
- MIC (X. maltophila; [4]): 1024 µg/mL
- MIC (X. maltophila; [5]): 1024 µg/mL
- MIC (X. maltophila; [6]): 1024 µg/mL
- MIC (X. maltophila; [7]): 1024 µg/mL
- MIC (P. aeruginosa [1]; [8]): 128 µg/mL
- MIC (P. aeruginosa [1]; [9]): 32 µg/mL
- MIC (P. aeruginosa [1]; [10]): 128 µg/mL
- MIC (P. aeruginosa [1]; [11]): 1024 µg/mL
- MIC (P. aeruginosa [1]; [12]): 256 µg/mL
- MIC (P. aeruginosa [1]; [13]): 256 µg/mL
- MIC (P. aeruginosa [1]; [14]): 32 µg/mL
- MIC (P. aeruginosa [1]; Pseudomonas aeruginosa, P. aeruginosa isolate 23, strain ATCC 27853): 256 µg/mL
- MIC (A. calcoaceticus; A. calcoaceticus isolate 9, strain 8224): 128 µg/mL
- MIC (E. cloacae; [15]): 4 µg/mL
- MIC (E. cloacae; [16]): 4 µg/mL
- MIC (E. cloacae; E. cloacae isolate 21, strain 14661): 8 µg/mL

Compound: C[C@@H](O)[C@H]1C(=O)N2C(C(=O)O)=C(SCCN=CN)C[C@H]12 [Imipenem]
- MIC (X. maltophila; X. maltophila isolate 34, strain ATCC 13637): 512 µg/mL
- MIC (X. maltophila; [17]): 512 µg/mL
- MIC (X. maltophila; [18]): 512 µg/mL
- MIC (X. maltophila; [3]): 512 µg/mL
- MIC (X. maltophila; [4]): 512 µg/mL
- MIC (X. maltophila; [5]): 512 µg/mL
- MIC (X. maltophila; [6]): 512 µg/mL
- MIC (X. maltophila; [19]): 512 µg/mL
- MIC (X. maltophila; [20]): 512 µg/mL
- MIC (X. maltophila; [21]): 512 µg/mL
- MIC (X. maltophila; [22]): 512 µg/mL
- MIC (X. maltophila; [7]): 512 µg/mL
- MIC (P. aeruginosa [1]; [8]): 4 µg/mL
- MIC (P. aeruginosa [1]; [9]): 2 µg/mL
- MIC (P. aeruginosa [1]; [10]): 4 µg/mL
- MIC (P. aeruginosa [1]; [11]): 8 µg/mL
- MIC (P. aeruginosa [1]; [23]): 8 µg/mL
- MIC (P. aeruginosa [1]; P. aeruginosa isolate 29, strain 15545): 128 µg/mL
- MIC (P. aeruginosa [1]; [12]): 128 µg/mL
- MIC (P. aeruginosa [1]; [14]): 128 µg/mL
- MIC (A. calcoaceticus; A. calcoaceticus isolate 3, strain 27): 512 µg/mL
- MIC (A. calcoaceticus; A. calcoaceticus isolate 4, strain 28): 8 µg/mL
- MIC (A. calcoaceticus; A. calcoaceticus isolate 7, strain 8222): 2 µg/mL
- MIC (A. calcoaceticus; A. calcoaceticus isolate 11, strain 8226): 2 µg/mL
- MIC (E. cloacae; E. cloacae isolate 12, strain ATCC 13047): 2 µg/mL
- MIC (E. cloacae; [15]): 2 µg/mL
- MIC (E. cloacae; [16]): 2 µg/mL
- MIC (E. cloacae; E. cloacae isolate 19, strain 3356): 2 µg/mL
- MIC (E. cloacae; E. cloacae isolate 20, strain 14269): 2 µg/mL

Compound: MA-20: 20 carboxy terminal amino acids of melittin (MA) [reference compound]
- MIC (Candida albicans): ≧64
- MIC (E. coli): ≧64
- MIC (S. aureus; S. aureus (K 147)): ≧64
- MIC (S. aureus; S. aureus (SAP0017)): ≧64
- MIC (P. aeruginosa [2]): ≧64
- MIC (S. epidermis): ≧64

Compound: KKWWRRVLSGLKTAGPAIQSVLNK [MBI21A1]
- MIC B. Subtilis (B. Subtilis): >128 µg/mL
- MIC E. faecalis (E. faecalis): >128 µg/mL
- MIC E. coli 0111:B4 (E. coli): 16 µg/mL
- MIC K147 (S. aureus): >128 µg/mL
- MIC SAP (S. aureus): >128 µg/mL
- MIC C610 (C610): 16 µg/mL
- MIC H103 (P. aeruginosa [2]): 64 µg/mL
- MIC S. epi 0017 (S. epidermis): 128 µg/mL

Compound: KWWRRALQGLKTAGPAIQSVLNK [MBI21A2]
- MIC B. Subtilis (B. Subtilis): >128 µg/mL
- MIC E. faecalis (E. faecalis): >128 µg/mL
- MIC E. coli 0111:B4 (E. coli): 32 µg/mL
- MIC K147 (S. aureus): >128 µg/mL
- MIC SAP (S. aureus): >128 µg/mL
- MIC C610 (C610): 16 µg/mL
- MIC H103 (P. aeruginosa [2]): 128 µg/mL
- MIC S. epi 0017 (S. epidermis): >128 µg/mL

Compound: NC[C@H]1O[C@H](O[C@H]2[C@H](O)[C@@H](O[C@H]3O[C@H](CO)[C@@H](O)[C@H](N)[C@H]3O)[C@H](N)C[C@@H]2N)[C@H](N)C[C@@H]1O [Tobramycin]
- MIC (X. maltophila; [18]): 128 µg/mL
- MIC (X. maltophila; [5]): 16 µg/mL
- MIC (X. maltophila; [20]): 1 µg/mL
- MIC (X. maltophila; [21]): 1 µg/mL
- MIC (X. maltophila; [22]): 8 µg/mL
- MIC (P. aeruginosa [1]; [24]): 128 µg/mL
- MIC (P. aeruginosa [1]; [11]): 1 µg/mL
- MIC (P. aeruginosa [1]; [12]): 1 µg/mL
- MIC (P. aeruginosa [1]; [13]): 2 µg/mL
- MIC (P. aeruginosa [1]; P. aeruginosa isolate 33, strain W5483-2): 2 µg/mL
- MIC (A. calcoaceticus; [25]): 2 µg/mL
- MIC (E. cloacae; [15]): 1 µg/mL
- MIC (E. cloacae; E. cloacae isolate 15, strain B5546): 1 µg/mL

Compound: CC(C)(O/N=C(\C(=O)N[C@@H]1C(=O)N2C(C(=O)[O-])=C(C[n+]3ccccc3)CS[C@H]12)c1csc(N)n1)C(=O)O [Ceftazidime]
- MIC (X. maltophila; [17]): 32 µg/mL
- MIC (X. maltophila; [18]): 16 µg/mL
- MIC (X. maltophila; [4]): 256 µg/mL
- MIC (X. maltophila; [5]): 128 µg/mL
- MIC (X. maltophila; [6]): 32 µg/mL
- MIC (X. maltophila; [19]): 8 µg/mL
- MIC (X. maltophila; [21]): 2 µg/mL
- MIC (X. maltophila; [7]): 128 µg/mL and 256 µg/mL
- MIC (P. aeruginosa [1]; [24]): 64 µg/mL
- MIC (P. aeruginosa [1]; [11]): 256 µg/mL
- MIC (P. aeruginosa [1]; [23]): 4 µg/mL
- MIC (P. aeruginosa [1]; [12]): 8 µg/mL
- MIC (A. calcoaceticus; [25]): 4 µg/mL
- MIC (A. calcoaceticus; A. calcoaceticus isolate 5, strain 8220): 8 µg/mL

Compound: KWKSFIKNLTKVLKKVVTTALPALIS [MBI29A2]
- MIC B. Subtilis (B. Subtilis): 8 µg/mL
- MIC E. faecalis (E. faecalis): 64 µg/mL
- MIC E. coli 0111:B4 (E. coli): 8 µg/mL
- MIC K147 (S. aureus): 16 µg/mL
- MIC SAP (S. aureus): 8 µg/mL
- MIC C610 (C610): 8 µg/mL
- MIC H103 (P. aeruginosa [2]): 16 µg/mL
- MIC S. epi 0017 (S. epidermis): 16 µg/mL

Compound: O=C(O)c1cn(C2CC2)c2cc(N3CCNCC3)c(F)cc2c1=O [Ciprofloxacin]
- MIC (X. maltophila; [22]): 8 µg/mL
- MIC (P. aeruginosa [1]; [23]): 32 µg/mL

Compound: KWKLFKKKGTGAVLTVLTTGLPALIS [MBI29A3]
- MIC B. Subtilis (B. Subtilis): 16 µg/mL
- MIC E. faecalis (E. faecalis): >128 µg/mL
- MIC E. coli 0111:B4 (E. coli): 8 µg/mL
- MIC K147 (S. aureus): 32 µg/mL
- MIC SAP (S. aureus): 32 µg/mL
- MIC C610 (C610): 8 µg/mL
- MIC H103 (P. aeruginosa [2]): 16 µg/mL
- MIC S. epi 0017 (S. epidermis): 16 µg/mL

Compound: KWKLFKKIGIGAVLKVLTTGLPALIS [CEME, reference compound]
- MIC (Candida albicans): 64 µg/mL
- MIC (E. coli): 5 µg/mL
- MIC (S. aureus; S. aureus (K 147)): 32 µg/mL
- MIC (S. aureus; S. aureus (SAP0017)): 24 µg/mL
- MIC (P. aeruginosa [2]): 8 µg/mL
- MIC (S. epidermis): 16 µg/mL
